Experimental data published in patent publication US9163040B2, “Substituted bisphenyl butanoic phosphonic acid derivatives as NEP inhibitors” (NOVARTIS AG, priority 2013, dated 2015).
One block for each compound: values may come before it.

How the values were obtained:
[1] = test system: Aβ(1-40) peptide concentrations in cerebrospinal fluid; test: Aβ model: CSF Aβ after oral dosing, related to plasma ANP increase by exposure-response regression; assay type: in vivo, rat; conditions: rats, p.o.; for CSF Aβ (% vehicle control): 5 hr post-dosing; for fold higher % increases in CSF Aβ compared with Example 1: plasma ANP 200 to 240% of baseline
Procedure: The relative CNS and peripheral therapeutic activities of NEP inhibitors were evaluated in two nonclinical animal models. Compounds or their vehicle were administered orally to conscious rats, and either the increase in Aβ(1-40) peptide concentrations in cerebrospinal fluid (CSF; “Aβ model”) or the increase in plasma levels of the NEP substrate, atrial natriuretic peptide (ANP; “ANP potentiation model”) were determined. Thus, NEP inhibitors that elicit no or small increases in CSF Aβ at a given increase in plasma ANP may have an advantage over ones that trigger large elevations in Aβ.
CNS effects of NEP inhibitors were assessed in a different rat model (“Aβ model”). In this study, we have measured cerebrospinal fluid (CSF) levels of Aβ as a sensitive indicator of CNS Aβ concentrations (Kwasi G. Mawuenyega, 2010, Science, Vol 330, 1774)).
Experiments were conducted in naïve adult, male, WH rats purchased from Charles River Labs (body weights: 495±53 g, mean±SD; age: 8.5-12 months) that were housed and fed as described above. Rats were treated by oral gavage with 1 mL/kg of vehicle (0.5% methylcellulose+0.1% Tween 80) or a selected dose of NEP inhibitor between 7:30 and 10:00 am. Five hours later, rats were anesthetized with isoflurane, a laparotomy was performed, and an abdominal aortic blood sample was obtained on EDTA. Blood samples were centrifuged at 4° C. and 20 K g to separate plasma. Plasma samples were aliquoted and frozen (−70° C.) for later analysis of plasma compound levels. After exsanguination of the rat, the skin and muscle overlying the cisterna magna were retracted. A sample of CSF was collected by direct needle puncture through the exposed dura into the cisterna magna. CSF was transferred to pre-chilled (on ice) low-binding tubes (Protein LoBind tubes, 1.5 mL, Order No. 022431081, Eppendorf) using low-binding pipette tips (VWR Catalog #37001-164) as quickly as possible to minimize Aβ aggregation and adherence to the devices. CSF samples were frozen (−70° C.) for later analysis of Aβ levels
Aβ40 in CSF was quantified using the MesoScale Discovery (MSD, Gaithersburg, Md.) 96-well MULTI-ARRAY Human/Rodent (4G8) Aβ40 Ultra-Sensitive Kit (K110FTE-2). The assay was done according to the manufacturer's instructions except for the standard curve and the sample preparation. A-10 μL aliquot of each CSF sample was mixed with 190 μL 1% BSA/1× Tris solution (“Blocker A” from kit) for a 1:20 CSF dilution. Synthetic Aβ1-40 peptide (from kit) was serially diluted in 1% BSA/1× Tris solution to obtain standards from 10,000-10 pg/mL for an 8-point standard curve.
MSD MULTI-SPOT Aβ40 peptide plates from the kit were incubated for 1 hour after pipetting 150 μL/well 1% BSA/1× Tris solution. The plates were washed 3 times with 400 μL 1× Tris wash buffer (from kit) using a BioTek EL406 automated plate washer (Winooski, Vt.). For CSF samples and standards, 25 μL of a 1×SULFO-TAG 4G8 detection antibody/1× “Blocker G”/1% BSA/1× Tris solution (“detection antibody solution” from kit) was pipetted into the plate. CSF samples and standards were pipetted at 25 μL/well into the plates immediately following detection antibody solution additions. The plates were incubated for 2 hours and washed 3 times with 400 μL 1× Tris wash buffer using the EL406 automated plate washer. “Read buffer T” (from kit), 1×150 μL/well, was pipetted into the plates. The MSD plates were read immediately on the MSD SECTOR Imager 6000 reader.
Standards were assayed in triplicate. CSF samples were assayed in duplicate. Curve fitting, back-calculation, % recovery, and interpolation of sample concentrations were performed using MSD DISCOVERY WORKBENCH Data Analysis Tools 3.0 Software. Signal generated by the standards was plotted and fit using the 4-parameter logistical curve fitting option with a 1/y^2 weighting function. Sample pg/mL concentrations were interpolated from the fit curve. […]

[2] = biological target: recombinant human neutral endopeptidase (Homo sapiens (Human), UniProt P08473); test: in vitro inhibition of recombinant human neutral endopeptidase (fluorescence lifetime assay); assay type: biochemical; conditions: 1 hour pre-incubation, read after 1 hour at room temperature, pH 7.4; read-out: Human NEP IC50
Sequence of recombinant human neutral endopeptidase (P08473 whole entry): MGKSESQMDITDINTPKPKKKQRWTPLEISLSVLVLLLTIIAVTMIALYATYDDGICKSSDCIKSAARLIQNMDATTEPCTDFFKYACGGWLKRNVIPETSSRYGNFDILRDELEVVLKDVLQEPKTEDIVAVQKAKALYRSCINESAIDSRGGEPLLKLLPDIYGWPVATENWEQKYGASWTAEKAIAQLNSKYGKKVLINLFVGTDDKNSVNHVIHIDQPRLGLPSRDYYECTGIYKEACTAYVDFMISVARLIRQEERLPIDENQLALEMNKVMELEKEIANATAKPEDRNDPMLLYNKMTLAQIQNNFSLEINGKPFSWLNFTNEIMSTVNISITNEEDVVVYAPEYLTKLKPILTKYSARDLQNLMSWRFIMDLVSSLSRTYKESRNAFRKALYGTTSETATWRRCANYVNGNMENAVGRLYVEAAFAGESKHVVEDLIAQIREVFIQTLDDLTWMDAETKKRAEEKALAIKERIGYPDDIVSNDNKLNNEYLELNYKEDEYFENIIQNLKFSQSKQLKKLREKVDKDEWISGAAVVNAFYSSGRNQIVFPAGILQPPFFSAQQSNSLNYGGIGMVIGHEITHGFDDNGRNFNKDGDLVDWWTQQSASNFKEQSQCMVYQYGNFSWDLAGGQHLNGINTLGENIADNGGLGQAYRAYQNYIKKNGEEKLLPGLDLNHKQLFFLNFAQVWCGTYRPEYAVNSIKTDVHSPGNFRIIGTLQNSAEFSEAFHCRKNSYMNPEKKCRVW
Description: The activity of a compound according to the present invention can be assessed by the following in vitro and in vivo methods and/or by the following in vitro and in vivo methods well-described in the art. See Doering K, Meder G, Hinnenberger M, Woelcke J, Mayr L M, Hassiepen U, (2009) “A fluorescence lifetime-based assay for protease inhibitor profiling on human kallikrein 7”, Biomol Screen, January; 14(1):1-9.
In particular, the in vitro inhibition of recombinant human neutral endopeptidase can be determined as follows:
Recombinant human neutral endopeptidase (expressed in insect cells and purified using standard methods, final concentration 7 pM) is pre-incubated with test compounds at various concentrations for 1 hour at room temperature in 10 mM sodium phosphate buffer at pH 7.4, containing 150 mM NaCl and 0.05% (w/v) CHAPS. The enzymatic reaction is started by the addition of a synthetic peptide substrate Cys(PT14)-Arg-Arg-Leu-Trp-OH to a final concentration of 0.7 μM. Substrate hydrolysis leads to an increase in fluorescence lifetime (FLT) of PT14 measured by means of a FLT reader as described by Doering et al. (2009) as referenced supra. The effect of the compound on the enzymatic activity was determined after 1 hour (t=60 min) incubation at room temperature. […]

[3] = at plasma compound concentration corresponding to plasma ANP 200 % baseline
[4] = at plasma compound concentration corresponding to plasma ANP 210 % baseline
[5] = at plasma compound concentration corresponding to plasma ANP 220 % baseline
[6] = at plasma compound concentration corresponding to plasma ANP 230 % baseline
[7] = at plasma compound concentration corresponding to plasma ANP 240 % baseline

Compound: CCOC(=O)C[C@@H](Cc1ccc(-c2cc(Cl)ccc2F)cc1)NC(=O)CCC(=O)O [Example 1-17 (WO2010/136493)]
- CSF Aβ (% vehicle control) [1, 3]: 156 % vehicle control
- CSF Aβ (% vehicle control) [1, 4]: 179 % vehicle control
- CSF Aβ (% vehicle control) [1, 5]: 202 % vehicle control
- CSF Aβ (% vehicle control) [1, 6]: 225 % vehicle control
- CSF Aβ (% vehicle control) [1, 7]: 248 % vehicle control
- fold higher % increases in CSF Aβ compared with Example 1 [1]: 4 fold

Compound: CC(OC(=O)C[C@@H](Cc1ccc(-c2cc(Cl)ccc2F)cc1)NC(=O)CCP(=O)(O)O)OC(=O)OC1CCCCC1 (stereo partly drawn) [Example 1]
- CSF Aβ (% vehicle control) [1, 3]: 114 % vehicle control
- CSF Aβ (% vehicle control) [1, 4]: 120 % vehicle control
- CSF Aβ (% vehicle control) [1, 5]: 126 % vehicle control
- CSF Aβ (% vehicle control) [1, 6]: 132 % vehicle control
- CSF Aβ (% vehicle control) [1, 7]: 139 % vehicle control

- IC50 [2]: 0.11 nM
Compound: O=C(O)C[C@@H](Cc1ccc(-c2cc(Cl)ccc2F)cc1)NC(=O)CCP(=O)(O)O [Example 2, (R)-4-(5′-chloro-2′-fluoro-[1,1′-biphenyl]-4-yl)-3-(3-phosphonopropanamido)butanoic acid]

Compound: CCOC(=O)C[C@@H](Cc1ccc(-c2cccc(Cl)c2)cc1)NC(=O)CCC(=O)O [Example 1-2 (WO2010/136493)]
- CSF Aβ (% vehicle control) [1, 3]: 225 % vehicle control
- CSF Aβ (% vehicle control) [1, 4]: 242 % vehicle control
- CSF Aβ (% vehicle control) [1, 5]: 260 % vehicle control
- CSF Aβ (% vehicle control) [1, 6]: 211 % vehicle control
- CSF Aβ (% vehicle control) [1, 7]: 295 % vehicle control
- fold higher % increases in CSF Aβ compared with Example 1 [1]: 5- to 9 fold
